According to patent US20110268653A1, “Compositions and Methods Related to Acid Stable Lipid Nanospheres” (The Board of Regents of the University of Texas System, priority 2010, published 2011):

Work on `CCCCCCCCCCCCCCCCCC(=O)N1C(CCCCCCCCCCCCCCCCC)NC(=O)CC1C(=O)O` (stereo not shown) [ALA17, 17, 2-Heptadecyl-6-oxo-3-stearoylhexahydropyrimidine-4-carboxylic acid] yielded a melting point of 107 to 111 °C.
With `CCCCCC(=O)N1C(CCCCC)NC(=O)CC1C(=O)O` (stereo not shown) [Lipid 1a, 3-Hexanoyl-6-oxo-2-pentylhexahydropyrimidine-4-carboxylic acid] the melting point was 55 to 56 °C.
Work on `CCCCCCCCCCCC(=O)N1C(CCCCC)NC(=O)CC1C(=O)O` (stereo not shown) [Lipid 1b, 3-Dodecanoyl-6-oxo-2-pentylhexahydropyrimidine-4-carboxylic acid] yielded a melting point of 118 to 120 °C.
In the case of `CCCCCCCCCCCC1NC(=O)CC(C(=O)O)N1C(=O)CCCCC` (stereo not shown) [Lipid 1c, 3-Hexanoyl-6-oxo-2-undecylhexahydropyrimidine-4-carboxylic acid], the melting point is reported as 106 to 107 °C.
Work on `CCCCCCCCCCCC(=O)N1C(CCCCCCCCCCC)NC(=O)CC1C(=O)O` (stereo not shown) [Lipid 1d, 3-Dodecanoyl-6-oxo-2-undecylhexahydropyrimidine-4-carboxylic acid] yielded a melting point of 110 to 112 °C.
For `CCCCCCCCCCCCCCCCCC(=O)N1C(CCCCCCCCCCC)NC(=O)CC1C(=O)O` (stereo not shown) [Lipid 1e, 6-Oxo-3-stearoyl-2-undecylhexahydropyrimidine-4-carboxylic acid], the melting point was 105 to 109 °C.
For `CCCCCCCCCCCCCCCCCC1NC(=O)CC(C(=O)O)N1C(=O)CCCCCCCCCCC` (stereo not shown) [Lipid 1f, 3-Dodecanoyl-2-heptadecyl-6-oxohexahydropyrimidine-4-carboxylic acid], the melting point was 104 to 107 °C.
